Here are results for 2 compounds from patent US20130338106A1, “COMPOUNDS INHIBITING LEUCINE-RICH REPEAT KINASE ENZYME ACTIVITY” (priority 2011, published 2013).

Like-named read-outs stand apart in the source and are kept apart here.

Format in all cases: biochemical
In experiment [1] the target is T1, ROCK1 (Homo sapiens, UniProt Q13464).
T1 construct: purchased Caliper LifeSciences
Description: ProfilerPro Kinase Selectivity, ROCK1. The following applies: tested at 10 uM, read-out: percent inhibition of the kinase activity. How it is done:
(§1) Kinome selectivity profiling was performed using two example compounds according to the manufacturer's instructions using Caliper LifeSciences' ProfilerPro Kinase Selectivity Assay Kits. Compounds prepared in Examples 1 and 7 were tested at 10 uM and data were recorded using the Caliper LabChip® EZ Reader™. Each compounds' percent inhibition of the kinase activity measured in this manner is reported in the following lists.

Experiment [2] concerns the target T2, MER (Homo sapiens, UniProt Q12866).
T2 construct: purchased Caliper LifeSciences
Nature of the experiment: ProfilerPro Kinase Selectivity, MER. The following applies: tested at 10 uM, read-out: percent inhibition of the kinase activity. How it is done:
as §1

Experiment [3] concerns the target T3, HCK (Homo sapiens, UniProt P08631).
T3 construct: purchased Caliper LifeSciences
Description: ProfilerPro Kinase Selectivity, HCK. The note with it: tested at 10 uM, read-out: percent inhibition of the kinase activity. How it is done: as §1

For experiment [4], the target named is T4, PRKCQ (Homo sapiens, UniProt Q04759).
T4 construct: purchased Caliper LifeSciences
T4 sequence (Q04759 whole entry, species assumed): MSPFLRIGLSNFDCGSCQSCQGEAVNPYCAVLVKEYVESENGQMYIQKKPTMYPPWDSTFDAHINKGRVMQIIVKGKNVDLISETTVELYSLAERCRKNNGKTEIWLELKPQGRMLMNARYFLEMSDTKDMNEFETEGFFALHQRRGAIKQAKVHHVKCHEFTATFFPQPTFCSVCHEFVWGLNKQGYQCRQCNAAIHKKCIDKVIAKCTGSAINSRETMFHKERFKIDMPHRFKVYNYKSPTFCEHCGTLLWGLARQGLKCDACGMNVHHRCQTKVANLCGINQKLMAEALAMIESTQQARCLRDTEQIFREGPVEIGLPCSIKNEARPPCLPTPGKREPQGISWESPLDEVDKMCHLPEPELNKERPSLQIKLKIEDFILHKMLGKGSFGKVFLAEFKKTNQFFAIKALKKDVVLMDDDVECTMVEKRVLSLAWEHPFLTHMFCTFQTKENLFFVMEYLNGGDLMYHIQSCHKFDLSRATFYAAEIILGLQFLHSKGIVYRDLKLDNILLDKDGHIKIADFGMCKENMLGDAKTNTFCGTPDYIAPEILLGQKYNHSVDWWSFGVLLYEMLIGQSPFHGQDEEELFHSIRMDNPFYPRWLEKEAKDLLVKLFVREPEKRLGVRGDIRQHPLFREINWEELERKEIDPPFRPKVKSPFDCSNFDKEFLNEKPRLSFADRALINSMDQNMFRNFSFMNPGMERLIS
Nature of the experiment: ProfilerPro Kinase Selectivity, PRKCQ. The note with it: tested at 10 uM, read-out: percent inhibition of the kinase activity. How it is done: as §1

The target in experiment [5] is T5, CK1G1 (Homo sapiens, UniProt Q9HCP0).
T5 construct: purchased Caliper LifeSciences
T5 sequence (Q9HCP0 whole entry): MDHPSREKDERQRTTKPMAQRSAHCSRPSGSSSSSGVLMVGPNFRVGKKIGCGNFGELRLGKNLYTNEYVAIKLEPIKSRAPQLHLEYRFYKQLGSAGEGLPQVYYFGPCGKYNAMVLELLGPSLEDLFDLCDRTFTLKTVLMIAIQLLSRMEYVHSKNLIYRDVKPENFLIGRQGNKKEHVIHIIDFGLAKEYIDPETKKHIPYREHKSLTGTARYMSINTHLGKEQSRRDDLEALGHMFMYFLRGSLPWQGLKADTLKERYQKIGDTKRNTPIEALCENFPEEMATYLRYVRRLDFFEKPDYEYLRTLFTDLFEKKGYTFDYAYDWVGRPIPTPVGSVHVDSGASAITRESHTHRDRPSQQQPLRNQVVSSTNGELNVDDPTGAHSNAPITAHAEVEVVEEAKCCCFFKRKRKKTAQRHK
Nature of the experiment: ProfilerPro Kinase Selectivity, CK1G1. The following applies: tested at 10 uM, read-out: percent inhibition of the kinase activity. How it is done:
as §1

The target in experiment [6] is T6, NEK1 (Homo sapiens, UniProt Q96PY6).
T6 construct: purchased Caliper LifeSciences
Nature of the experiment: ProfilerPro Kinase Selectivity, NEK1. The following applies: tested at 10 uM, read-out: percent inhibition of the kinase activity. How it is done:
as §1

The target in experiment [7] is T7, FES (Homo sapiens, UniProt P07332).
T7 construct: purchased Caliper LifeSciences
Description: ProfilerPro Kinase Selectivity, FES. The note with it: tested at 10 uM, read-out: percent inhibition of the kinase activity. How it is done:
as §1

For experiment [8], the target named is LRRK2 (Homo sapiens, UniProt Q5S007). Nature of the experiment: ProfilerPro Kinase Selectivity, LRRK2. The note with it: read-out: percent inhibition of the kinase activity. How it is done:
Kinome selectivity profiling was performed using two example compounds according to the manufacturer's instructions using Caliper LifeSciences' ProfilerPro Kinase Selectivity Assay Kits. Compounds prepared in Examples 1 and 7 were tested at 10 uM and data were recorded using the Caliper LabChip® EZ Reader™.

Experiment [9] deals with T8, CDK1/CYCB1 (Homo sapiens, UniProt P06493).
T8 construct: purchased Caliper LifeSciences
T8 sequence (P06493 whole entry, species assumed): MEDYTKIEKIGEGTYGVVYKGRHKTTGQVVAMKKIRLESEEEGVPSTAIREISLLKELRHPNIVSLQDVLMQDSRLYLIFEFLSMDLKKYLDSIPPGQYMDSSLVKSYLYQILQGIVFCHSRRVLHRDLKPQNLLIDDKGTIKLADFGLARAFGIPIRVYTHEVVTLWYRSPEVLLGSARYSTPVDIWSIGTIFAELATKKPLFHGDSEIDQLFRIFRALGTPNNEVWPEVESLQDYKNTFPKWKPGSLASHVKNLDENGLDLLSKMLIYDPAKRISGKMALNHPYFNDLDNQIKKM
T8 sequence (P14635 whole entry partner, species assumed): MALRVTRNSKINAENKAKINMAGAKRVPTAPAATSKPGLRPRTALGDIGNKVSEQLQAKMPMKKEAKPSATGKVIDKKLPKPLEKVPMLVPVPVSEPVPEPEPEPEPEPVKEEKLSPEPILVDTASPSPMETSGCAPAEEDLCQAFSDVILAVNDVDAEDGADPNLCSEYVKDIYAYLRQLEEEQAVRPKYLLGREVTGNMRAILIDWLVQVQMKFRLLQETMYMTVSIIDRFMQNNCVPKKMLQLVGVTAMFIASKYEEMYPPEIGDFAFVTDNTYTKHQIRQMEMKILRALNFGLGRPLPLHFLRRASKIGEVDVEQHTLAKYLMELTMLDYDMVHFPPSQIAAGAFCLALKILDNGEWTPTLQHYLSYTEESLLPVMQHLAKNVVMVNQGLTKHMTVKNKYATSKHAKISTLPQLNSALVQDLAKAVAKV
Nature of the experiment: ProfilerPro Kinase Selectivity, CDK1/CYCB1. The following applies: tested at 10 uM, read-out: percent inhibition of the kinase activity. How it is done: as §1

For experiment [10], the target named is T9, CDK2 (Homo sapiens, UniProt P24941).
T9 construct: purchased Caliper LifeSciences
Nature of the experiment: ProfilerPro Kinase Selectivity, CDK2. The following applies: tested at 10 uM, read-out: percent inhibition of the kinase activity. How it is done: as §1

The target in experiment [11] is T10, DAPK1 (Homo sapiens, UniProt P53355).
T10 construct: purchased Caliper LifeSciences
Nature of the experiment: ProfilerPro Kinase Selectivity, DAPK1. The following applies: tested at 10 uM, read-out: percent inhibition of the kinase activity. How it is done:
as §1

T2 sequence (Q12866 21-999): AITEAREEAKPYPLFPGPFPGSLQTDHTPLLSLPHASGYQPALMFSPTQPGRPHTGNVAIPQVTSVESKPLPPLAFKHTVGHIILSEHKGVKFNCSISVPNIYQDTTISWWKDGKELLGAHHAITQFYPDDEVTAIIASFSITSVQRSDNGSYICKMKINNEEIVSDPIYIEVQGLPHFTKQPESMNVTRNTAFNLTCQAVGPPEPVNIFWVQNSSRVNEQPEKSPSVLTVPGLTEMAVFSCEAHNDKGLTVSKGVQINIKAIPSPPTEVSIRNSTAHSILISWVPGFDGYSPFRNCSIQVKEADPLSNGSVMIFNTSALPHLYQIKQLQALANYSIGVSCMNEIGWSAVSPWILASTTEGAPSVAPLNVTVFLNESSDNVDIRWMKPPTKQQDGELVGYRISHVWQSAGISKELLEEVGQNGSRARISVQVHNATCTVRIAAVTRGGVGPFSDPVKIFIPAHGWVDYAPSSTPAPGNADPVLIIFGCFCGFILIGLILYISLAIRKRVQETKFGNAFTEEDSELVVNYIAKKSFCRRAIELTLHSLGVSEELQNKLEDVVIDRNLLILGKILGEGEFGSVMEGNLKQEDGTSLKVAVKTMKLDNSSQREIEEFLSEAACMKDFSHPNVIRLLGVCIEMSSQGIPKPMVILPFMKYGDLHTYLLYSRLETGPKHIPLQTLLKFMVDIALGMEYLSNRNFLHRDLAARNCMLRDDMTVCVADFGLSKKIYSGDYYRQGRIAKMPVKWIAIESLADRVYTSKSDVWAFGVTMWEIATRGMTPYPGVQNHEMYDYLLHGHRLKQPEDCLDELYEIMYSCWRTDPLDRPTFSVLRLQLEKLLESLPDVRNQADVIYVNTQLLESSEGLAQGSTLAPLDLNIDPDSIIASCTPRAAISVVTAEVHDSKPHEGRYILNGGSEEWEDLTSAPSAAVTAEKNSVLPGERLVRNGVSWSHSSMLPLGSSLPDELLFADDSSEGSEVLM
T3 sequence (P08631 whole entry, species assumed): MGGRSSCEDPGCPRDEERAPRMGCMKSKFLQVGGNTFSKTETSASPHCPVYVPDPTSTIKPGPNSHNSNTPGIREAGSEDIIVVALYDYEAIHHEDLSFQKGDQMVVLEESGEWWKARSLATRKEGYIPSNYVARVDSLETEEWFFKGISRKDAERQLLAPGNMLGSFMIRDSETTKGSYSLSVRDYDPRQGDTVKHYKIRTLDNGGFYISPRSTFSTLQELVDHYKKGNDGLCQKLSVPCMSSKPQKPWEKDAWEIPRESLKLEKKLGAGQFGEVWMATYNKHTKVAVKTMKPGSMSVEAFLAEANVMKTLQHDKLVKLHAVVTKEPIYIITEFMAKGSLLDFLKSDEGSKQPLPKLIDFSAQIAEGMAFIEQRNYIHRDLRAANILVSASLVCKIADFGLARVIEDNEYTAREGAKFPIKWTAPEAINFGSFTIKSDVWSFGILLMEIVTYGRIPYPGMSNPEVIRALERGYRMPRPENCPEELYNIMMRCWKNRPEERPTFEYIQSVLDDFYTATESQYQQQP
T1 sequence (Q13464 whole entry, species assumed): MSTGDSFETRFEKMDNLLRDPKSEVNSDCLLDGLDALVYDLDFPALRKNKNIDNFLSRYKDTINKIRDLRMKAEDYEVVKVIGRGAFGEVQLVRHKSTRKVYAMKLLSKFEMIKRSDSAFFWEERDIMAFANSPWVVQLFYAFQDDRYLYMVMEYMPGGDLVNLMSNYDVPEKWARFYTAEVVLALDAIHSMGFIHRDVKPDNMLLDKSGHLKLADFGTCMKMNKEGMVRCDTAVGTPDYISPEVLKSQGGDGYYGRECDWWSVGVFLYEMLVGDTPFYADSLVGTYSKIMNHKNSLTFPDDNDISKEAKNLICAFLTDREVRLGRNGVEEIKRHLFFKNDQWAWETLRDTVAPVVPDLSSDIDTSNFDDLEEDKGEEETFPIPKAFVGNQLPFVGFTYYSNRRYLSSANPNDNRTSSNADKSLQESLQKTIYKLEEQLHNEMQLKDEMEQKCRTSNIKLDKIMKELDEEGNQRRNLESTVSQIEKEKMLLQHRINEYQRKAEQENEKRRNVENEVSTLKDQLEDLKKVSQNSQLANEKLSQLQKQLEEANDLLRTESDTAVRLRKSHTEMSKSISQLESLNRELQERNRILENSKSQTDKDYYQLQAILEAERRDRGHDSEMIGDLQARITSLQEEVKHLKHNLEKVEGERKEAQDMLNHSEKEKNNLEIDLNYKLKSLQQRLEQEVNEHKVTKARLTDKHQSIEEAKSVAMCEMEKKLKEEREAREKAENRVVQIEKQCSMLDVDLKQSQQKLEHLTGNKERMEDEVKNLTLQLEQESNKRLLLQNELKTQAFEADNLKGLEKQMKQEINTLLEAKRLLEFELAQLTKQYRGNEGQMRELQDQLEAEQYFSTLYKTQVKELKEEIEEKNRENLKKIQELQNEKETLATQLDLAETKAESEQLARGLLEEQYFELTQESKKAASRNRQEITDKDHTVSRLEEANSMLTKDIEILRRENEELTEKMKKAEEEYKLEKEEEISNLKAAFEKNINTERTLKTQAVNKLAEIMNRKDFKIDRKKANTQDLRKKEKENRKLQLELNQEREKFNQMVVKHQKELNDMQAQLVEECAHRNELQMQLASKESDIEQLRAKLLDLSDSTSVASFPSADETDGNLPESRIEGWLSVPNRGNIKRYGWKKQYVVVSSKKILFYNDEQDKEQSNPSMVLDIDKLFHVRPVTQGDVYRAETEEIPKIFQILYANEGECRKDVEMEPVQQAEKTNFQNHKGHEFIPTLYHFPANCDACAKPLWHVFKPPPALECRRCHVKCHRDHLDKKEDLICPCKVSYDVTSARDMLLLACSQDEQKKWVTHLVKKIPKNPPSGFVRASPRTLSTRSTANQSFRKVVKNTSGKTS

As usually defined, the inhibition is the drop in the measured response relative to a control, in per cent. Take `CSc1sc(-c2cc[nH]n2)c2c1C(=O)CCC2` [Example 1, 3-(Methylsulfanyl)-1-(1H-pyrazol-3-yl)-6,7-dihydro-2-benzothiophen-4(5H)-one]: the inhibition at 10 µM in experiment [1] was -3.1%; in [2] it was 23.8%; in experiment [3] it was 12.5%; in [4], -0.4%; in experiment [5], 6.6%; in [6], 9.1%. The inhibition at 10 µM in experiment [7] is -2.8%; in experiment [8], 93.9%; in [9], 5.3%; in [10], 18.4%; in experiment [11], 7.2%.

Consider `CC1(C)CC(=O)c2c(SC3CCCC3)sc(-c3cc[nH]n3)c2C1` [Example 7, 3-(Cyclopentylsulfanyl)-6,6-dimethyl-1-(1H-pyrazol-3-yl)-6,7-dihydro-2-benzothiophen-4(5H)-one], for which the inhibition at 10 µM was 5.1% in experiment [1]; 8% in experiment [2]; -1.1% in [3]; -4.7% in experiment [4]; 10.9% in experiment [5]; 1.4% in experiment [6]. The inhibition at 10 µM in [7] was -3.1%; in experiment [8] (LRRK2, tested at 10 uM), 83.1%; in [9], -6.7%; in experiment [10], 2.1%; in experiment [11] it was -2%.
